Assay results as given in patent publication US8865623B2, “Herbicidally active cyclic diones and derivatives thereof, processes for their preparation, compositions, and method of controlling weeds” (Syngenta Limited, priority 2009, dated 2014).

Tests used:
Assay type in all cases: in vivo
[1] = test system: Alopecurus myosuroides (ALOMY); test: Pre-emergence herbicidal activity, glasshouse pot test; conditions: Alopecurus myosuroides, 312 h, Rate 250 g/ha, evaluated after 13 days, read-out: Pre-emergence activity ALOMY (100=total damage to plant; 0=no damage to plant)
Outline: (§1)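 Seeds sown in standard soil in pots were sprayed 1 day after sowing (pre-emergence) or after 8 days' cultivation (post-emergence) with aqueous spray from acetone/water (50:50) formulation containing 0.5% Tween 20. Plants grew at 24/16° C day/night, 14 h light, 65% humidity, watered twice daily. Damage scored after 13 days, 0–100.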

Lolium perenne (LOLPE) [2] = test: as above; conditions: Lolium perenne, 312 h, Rate 250 g/ha, evaluated after 13 days, read-out: Pre-emergence activity LOLPE (100=total damage to plant; 0=no damage to plant)
Outline: as §1

Avena fatua (AVEFA) [3] = test: as above; conditions: Avena fatua, 312 h, Rate 250 g/ha, evaluated after 13 days, read-out: Pre-emergence activity AVEFA (100=total damage to plant; 0=no damage to plant)
Outline: as §1

[4] = test system: Echinochloa crus-galli (ECHCG); test: as above; conditions: Echinochloa crus-galli, 312 h, Rate 250 g/ha, evaluated after 13 days, read-out: Pre-emergence activity ECHCG (100=total damage to plant; 0=no damage to plant)
Outline: as §1

[5] = test system: Alopecurus myosuroides (ALOMY); test: Post-emergence herbicidal activity, glasshouse pot test; conditions: Alopecurus myosuroides, 312 h, rate 250 g/ha, evaluated after 13 days, read-out: Post-emergence activity ALOMY (100=total damage to plant; 0=no damage to plant)
Outline: as §1

Lolium perenne (LOLPE) [6] = test: as above; conditions: Lolium perenne, 312 h, rate 250 g/ha, evaluated after 13 days, read-out: Post-emergence activity LOLPE (100=total damage to plant; 0=no damage to plant)
Outline: as §1

Avena fatua (AVEFA) [7] = test: as above; conditions: Avena fatua, 312 h, rate 250 g/ha, evaluated after 13 days, read-out: Post-emergence activity AVEFA (100=total damage to plant; 0=no damage to plant)
Outline: as §1

[8] = test system: Echinochloa crus-galli (ECHCG); test: as above; conditions: Echinochloa crus-galli, 312 h, rate 250 g/ha, evaluated after 13 days, read-out: Post-emergence activity ECHCG (100=total damage to plant; 0=no damage to plant)
Outline: as §1

Structure (SMILES) | pest or weed control at 250 g/ha ([1]; pre-emergence spray) [%] | pest or weed control at 250 g/ha (Lolium perenne (LOLPE) [2]; pre-emergence spray) [%] | pest or weed control at 250 g/ha (Avena fatua (AVEFA) [3]; pre-emergence spray) [%] | pest or weed control at 250 g/ha ([4]; pre-emergence spray) [%] | pest or weed control at 250 g/ha ([5]; glasshouse) [%] | pest or weed control at 250 g/ha (Lolium perenne (LOLPE) [6]; glasshouse) [%] | pest or weed control at 250 g/ha (Avena fatua (AVEFA) [7]; glasshouse) [%] | pest or weed control at 250 g/ha ([8]; glasshouse) [%] | pest or weed control at 250 g/ha ([1]; pre-emergence) [%] | pest or weed control at 250 g/ha (Lolium perenne (LOLPE) [2]; pre-emergence) [%] | pest or weed control at 250 g/ha (Avena fatua (AVEFA) [3]; pre-emergence) [%] | pest or weed control at 250 g/ha ([4]; pre-emergence) [%] | pest or weed control at 250 g/ha [5] [%] | pest or weed control at 250 g/ha (Lolium perenne (LOLPE) [6]) [%] | pest or weed control at 250 g/ha (Avena fatua (AVEFA) [7]) [%] | pest or weed control at 250 g/ha [8] [%]
CCc1ccc(Oc2ccc(Br)cc2)cc1C1=C(O)CC2(CCOCC2)CC1=O [Example A-37] | 70 | 80 | 70 | 100 | 100 | 90 | 100 | 100 |  |  |  |  |  |  |  | 
CCc1ccc(Oc2ncc(Cl)cc2C(F)(F)F)cc1C1=C(O)[C@@H]2CC[C@](C)(C1=O)C2(C)C [Example A-329] | 90 | 100 | 90 | 100 | 80 | 70 | 90 | 100 |  |  |  |  |  |  |  | 
CCc1ccc(Oc2ccc(Cl)c(F)c2)cc1C1=C(O)CC(C)(C)CC1=O [Example A-46] | 100 | 70 | 30 | 90 | 80 | 60 | 50 | 100 |  |  |  |  |  |  |  | 
CCc1ccc(Oc2ncc(Br)cn2)cc1C1=C(O)CC2(CCOCC2)CC1=O [Example A-310] | 100 | 70 | 50 | 100 | 100 | 90 | 80 | 100 |  |  |  |  |  |  |  | 
CCc1ccc(Oc2c(F)ncc(Cl)c2F)cc1C1=C(O)C(C)(C)OC(C)(C)C1=O [Example A-192] | 0 | 0 | 0 | 20 | 0 | 10 | 10 | 40 |  |  |  |  |  |  |  | 
CC1(C)OC(C)(C)C(O)=C(c2cc(Oc3cnc4cc(F)ccc4n3)ccc2C2CC2)C1=O [Example A-372] |  |  |  |  |  |  |  |  | 70 | 100 | 90 | 90 | 100 | 100 | 100 | 100
CCc1ccc(Oc2nccnc2Cl)cc1C1=C(O)C(C)(C)OC(C)(C)C1=O [Example A-103] | 10 | 40 | 0 | 30 | 10 | 20 | 0 | 40 |  |  |  |  |  |  |  | 
CCc1ccc(Oc2ncc(C(F)(F)F)cc2C(F)(F)F)cc1C1=C(O)C(C)(C)OC(C)(C)C1=O [Example A-148] | 50 | 100 | 90 | 90 | 90 | 90 | 100 | 100 |  |  |  |  |  |  |  | 
CCc1ccc(Oc2nc(F)c(Cl)c(Cl)c2Cl)cc1C1=C(O)C(C)(C)OC(C)(C)C1=O [Example A-60] | 0 | 40 | 0 | 50 | 0 | 0 | 0 | 0 |  |  |  |  |  |  |  | 
CCc1ccc(Oc2ncc(Cl)cc2Cl)cc1C1=C(O)CC2(CCOCC2)CC1=O [Example A-275] | 100 | 100 | 90 | 100 | 90 | 100 | 100 | 100 |  |  |  |  |  |  |  | 
CC1(C)OC(C)(C)C(O)=C(c2cc(Oc3ccc(Cl)cc3F)ccc2C2CC2)C1=O [Example A-348] |  |  |  |  |  |  |  |  | 60 | 100 | 10 | 100 | 100 | 90 | 60 | 100
CCc1ccc(Oc2nc3ccc(OC(F)(F)F)cc3s2)cc1C1=C(O)C(C)(C)OC(C)(C)C1=O [Example A-218] | 20 | 20 | 10 | 50 | 70 | 80 | 100 | 100 |  |  |  |  |  |  |  | 
CCc1ccc(Oc2ccc(Cl)cc2Br)cc1C1=C(O)C(C)(C)OC(C)(C)C1=O [Example A-23] | 70 | 90 | 70 | 90 | 80 | 90 | 80 | 100 |  |  |  |  |  |  |  | 
CCc1ccc(Oc2nc3ccccc3s2)cc1C1=C(O)[C@@H]2CC[C@](C)(C1=O)C2(C)C [Example A-319] | 90 | 100 | 70 | 100 | 100 | 100 | 100 | 100 |  |  |  |  |  |  |  | 
CCc1ccc(Oc2ccc(C(F)(F)F)cn2)cc1C1=C(O)CC2(CCOCC2)CC1=O [Example A-267] | 100 | 100 | 100 | 100 | 100 | 100 | 100 | 100 |  |  |  |  |  |  |  | 
CCc1ccc(Oc2ccc(Cl)cc2Cl)cc1C1=C(O)[C@H]2CC[C@H](C2)C1=O (single isomer, unassigned) [Example A-90] | 70 | 90 | 70 | 100 | 60 | 80 | 30 | 90 |  |  |  |  |  |  |  | 
CCc1ccc(Oc2ncc(C(F)(F)F)cc2Cl)cc1C1=C(O)[C@H]2CC[C@H](C2)C1=O [Example A-335] | 100 | 100 | 90 | 100 | 100 | 100 | 90 | 100 |  |  |  |  |  |  |  | 
CC1(C)OC(C)(C)C(O)=C(c2cc(Oc3ccc(Br)cc3Cl)ccc2C2CC2)C1=O [Example A-352] |  |  |  |  |  |  |  |  | 70 | 90 | 20 | 100 | 90 | 90 | 70 | 100
CCc1ccc(Oc2ccc(Cl)c(Cl)c2)cc1C1=C(O)C(C)(C)OC(C)(C)C1=O [Example A-182] | 30 | 80 | 30 | 90 | 90 | 60 | 60 | 100 |  |  |  |  |  |  |  | 
